Source: the NIST ThermoML archive (doi:10.1021/je050010l)

Assay: xn = mol fraction of the nth substance listed
Conditions: 100.8 kPa, Liquid; for viscosity: Capillary tube (Ostwald / Ubbelohde) method

CC(C)=O [acetone] + CCO
Conditions | mass density, 288.15 K [kg/m3] | mass density, 298.15 K [kg/m3] | viscosity, 288.15 K [mPa·s] | viscosity, 298.15 K [mPa·s] | viscosity, 308.15 K [mPa·s]
x1 = 0.05 | 794.4 | 785.59 | 1.126 | 0.944 | 0.793
x1 = 0.1 | 794.86 | 785.84 | 0.985 | 0.829 | 0.703
x1 = 0.15 | 795.23 | 786 | 0.873 | 0.741 | 0.632
x1 = 0.2 | 795.5 | 786.08 | 0.783 | 0.669 | 0.575
x1 = 0.25 | 795.75 | 786.16 | 0.709 | 0.61 | 0.527
x1 = 0.3 | 795.99 | 786.23 | 0.649 | 0.561 | 0.487
x1 = 0.35 | 796.18 | 786.24 | 0.598 | 0.521 | 0.453
x1 = 0.4 | 796.34 | 786.23 | 0.556 | 0.486 | 0.426
x1 = 0.45 | 796.46 | 786.21 | 0.518 | 0.457 | 0.403
x1 = 0.4999 | 796.57 | 786.19 | 0.488 | 0.431 | 0.383
x1 = 0.55 | 796.68 | 786.17 | 0.461 | 0.409 | –
x1 = 0.6 | 796.77 | 786.13 | 0.438 | 0.39 | –
x1 = 0.65 | 796.84 | 786.07 | 0.418 | 0.373 | –
x1 = 0.7 | 796.86 | 786 | 0.401 | 0.358 | –
x1 = 0.75 | 796.88 | 785.9 | 0.386 | 0.345 | –
x1 = 0.8 | 796.91 | 785.84 | 0.373 | 0.334 | –
x1 = 0.8501 | 796.9 | 785.73 | 0.363 | 0.325 | –
x1 = 0.9 | 796.92 | 785.66 | 0.353 | 0.317 | –
x1 = 0.95 | 796.91 | 785.57 | 0.344 | 0.309 | –
x1 = 1 | 796.87 | 785.47 | 0.334 | 0.302 | –
